PMC10937419, “Exploring pyrrolidinyl-spirooxindole natural products as promising platforms for the synthesis of novel spirooxindoles as EGFR/CDK2 inhibitors for halting breast cancer cells” (Frontiers in Chemistry, 2024)

Tests used:
[1] = system: A549 cells; parameters: method as in Barakat, et al., 2023; conditions: ref Barakat, et al., 2023, cited from earlier work
[2] = system: MCF-7; parameters: method as in Al-Jassas, et al., 2023; conditions: ref Al-Jassas, et al., 2023; cited from earlier work
[3] = system: HepG2; parameters: method as in Al-Jassas, et al., 2023; conditions: ref Al-Jassas, et al., 2023; cited from earlier work
[4] = system: CDK-2; parameters: method as in Al-Jassas, et al., 2023; conditions: ref Al-Jassas, et al., 2023; read-out: CDK-2 inhibition; cited from earlier work
[5] = system: EGFR; parameters: method as in Al-Jassas, et al., 2023; conditions: ref Al-Jassas, et al., 2023; read-out: IC50 for EGFR inhibition; cited from earlier work
[6] = system: MCF-7 cells; experiment: MTT cytotoxicity assay, MCF-7 breast cancer cells; type: cell-based; conditions: Homo sapiens, MCF7; MTT assay; mean ± SD of three independent trials; read-out: IC50 ± SD, MCF-7
Procedure: (§1) All cells were incubated at 37 °C in 5% carbon dioxide atmosphere (NuAire). Cells were plated at a density of 5x10^4 cells in triplicates in a plate of 96 wells. On the second day, cells were treated with the compounds with concentrations of (0.01, 0.1, 1, 10, and 100 µM). Cell viability was assessed using the MTT assay [6].

[7] = system: MDA-MB-231 cells; experiment: MTT cytotoxicity assay, MDA-MB-231 breast cancer cells; type: cell-based; conditions: Homo sapiens, MDA-MB-231, MTT assay; mean ± SD of three independent trials; read-out: IC50 ± SD, MDA-MB-231
Procedure: as §1

[8] = system: WISH cells; experiment: MTT cytotoxicity (safety) assay, normal WISH cells; type: cell-based; conditions: mean ± SD of three independent trials
Procedure: The cytotoxicity of the synthesized compounds was tested using the MTT assay on breast cancer cells (MCF-7 and MDA-MB-231).
The methods for the Cytotoxic activity ([Mosmann, 1983]; [Nafie et al., 2020a]); EGFR/CDK-2 enzyme inhibition ([Nafie et al., 2022a]); Flow cytometry using Annexin V/PI staining; Gene expression analysis using RT-PCR ([Nafie et al., 2022b]); are amended in the Supplementary Material S1.
as §1, with “Both breast cancer; MCF-7 and MDA-MB-231 and normal (WISH) cells were purchased from the National Research Institute, Egypt, and maintained in RPMI-1640 medium L-Glutamine (Lonza Verviers SPRL, Belgium, cat#12-604F). All” for “All”

[9] = biological target: T1, EGFR kinase (Homo sapiens, UniProt P00533); experiment: EGFR kinase inhibition assay; type: biochemical; conditions: for % remaining EGFR kinase activity (relative to control): signal relative to control; for % remaining EGFR kinase activity (relative to control) / inhibition at 0.01 µM / inhibition at 0.1 µM / inhibition at 1 µM / inhibition at 2.5 µM / inhibition at 5 µM / inhibition at 10 µM: ΔT=30 min; for IC50: average of three independent replicates; for % Of EGFR inhibition: concentration not given in Table 2, matches 10 µM in the 4th table
T1 construct: purchased BPS Bioscience Corporation 40321
T1 sequence (P00533 25-1210): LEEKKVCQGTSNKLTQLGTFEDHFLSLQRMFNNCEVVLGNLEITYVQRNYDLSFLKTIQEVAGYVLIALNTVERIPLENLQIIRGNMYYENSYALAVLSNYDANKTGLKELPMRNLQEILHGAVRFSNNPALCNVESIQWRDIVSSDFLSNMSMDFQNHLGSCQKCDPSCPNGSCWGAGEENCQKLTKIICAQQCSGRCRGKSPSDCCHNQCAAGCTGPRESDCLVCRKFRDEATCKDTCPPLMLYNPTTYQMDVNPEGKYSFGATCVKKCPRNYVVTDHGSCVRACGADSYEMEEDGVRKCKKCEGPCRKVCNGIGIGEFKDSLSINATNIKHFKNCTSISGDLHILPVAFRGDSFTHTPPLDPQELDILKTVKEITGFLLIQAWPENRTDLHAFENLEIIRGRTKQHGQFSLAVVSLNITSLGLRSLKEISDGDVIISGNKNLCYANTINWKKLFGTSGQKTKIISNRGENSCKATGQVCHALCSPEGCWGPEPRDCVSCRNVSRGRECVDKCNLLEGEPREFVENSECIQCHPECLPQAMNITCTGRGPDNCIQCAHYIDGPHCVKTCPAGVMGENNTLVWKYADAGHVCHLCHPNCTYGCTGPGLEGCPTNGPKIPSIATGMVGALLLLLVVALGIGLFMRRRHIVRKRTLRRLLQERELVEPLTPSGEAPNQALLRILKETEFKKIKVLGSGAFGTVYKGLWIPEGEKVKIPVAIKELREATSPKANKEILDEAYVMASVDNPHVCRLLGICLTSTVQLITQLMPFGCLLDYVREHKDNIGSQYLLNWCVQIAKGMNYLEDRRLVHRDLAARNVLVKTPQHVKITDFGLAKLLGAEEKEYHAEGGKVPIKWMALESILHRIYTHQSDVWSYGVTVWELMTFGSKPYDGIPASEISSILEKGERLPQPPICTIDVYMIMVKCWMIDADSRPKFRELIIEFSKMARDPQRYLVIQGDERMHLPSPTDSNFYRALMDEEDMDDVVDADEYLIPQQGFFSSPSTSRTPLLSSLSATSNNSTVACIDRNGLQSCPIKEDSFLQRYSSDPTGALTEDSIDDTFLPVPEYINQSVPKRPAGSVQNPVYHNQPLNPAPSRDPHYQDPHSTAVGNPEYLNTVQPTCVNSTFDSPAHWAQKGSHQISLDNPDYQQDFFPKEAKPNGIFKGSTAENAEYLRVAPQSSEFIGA
Procedure: (§2) Inhibitory activities of 5g, 5l, and 5n were tested against EGFR and CDK-2.
(§3) Plus, Promega, USA) inhibition assay.

[10] = biological target: T2, CDK-2 kinase (Homo sapiens, UniProt P24941); experiment: CDK-2 kinase inhibition assay (Kinase-Glo Plus); type: biochemical; conditions: for CDK-2 kinase activity remaining (% of control): signal relative to control; for CDK-2 kinase activity remaining (% of control) / inhibition at 0.01 µM / inhibition at 0.1 µM / inhibition at 1 µM / inhibition at 2.5 µM / inhibition at 5 µM / inhibition at 10 µM: ΔT=30 min; for inhibition at 0.01 µM / inhibition at 0.1 µM / inhibition at 1 µM / inhibition at 2.5 µM / inhibition at 5 µM / inhibition at 10 µM: read-out: % of inhibition, CDK2; for IC50: average of three independent replicates
T2 construct: purchased not clearly printed (Promega, USA is printed after 'Kinase-Glo Plus'; #79599 is a BPS Bioscience number to my knowledge) 79599
Procedure: as §2, §3

[11] = system: MCF-7 cells; experiment: Annexin V/PI staining flow cytometry (apoptosis/necrosis); type: cell-based; conditions: MCF-7, at the IC50 value, 48 h
Procedure: The apoptotic activity of compounds 5g was determined by flow cytometric analysis of Annexin V/PI staining of untreated and treated MCF-7 cells. […] Additionally, they induced necrotic cell death by 5.43% compared to 2.12% in the untreated control.
FIGURE 4 (A) Bar representation of the percentage of apoptosis (early and late apoptotic cell population) using Annexin V/Propidium Iodide staining.
MCF-7 cells were seeded into 6-well culture plates (3-5× 10^5 cells/well) and incubated overnight. […] Next, media supernatants and cells were collected and rinsed with ice-cold PBS. Then cells were suspended the cells in 100 µL of annexin binding buffer solution "25 mM CaCl2, 1.4 M NaCl, and 0.1 M Hepes/NaOH, pH 7.4” and incubation with “Annexin V-FITC solution (1:100) and propidium iodide (PI)” at a concentration equals 10 µg/mL in the dark for 30 min. Stained cells were then acquired by BD FACSCalibur™ Flow Cytometer.

[12] = system: MCF-7 cells; experiment: Cell cycle analysis by flow cytometry; type: cell-based; conditions: MCF-7, at the IC50 value, 48 h
[13] = system: MCF-7 cells; experiment: RT-PCR gene expression of apoptosis-related genes; type: cell-based; conditions: MCF-7, at the IC50 value, 48 h
Description: Both the untreated and treated MCF-7 cells were subjected to RT-PCR to confirm apoptotic cell death (Figure 5). […] These findings are in line with the possibility of triggering cell death by blocking enzymes. Activation of the intrinsic apoptotic pathway leads to mitochondrial potential loss and cytochrome c release. When the ratio of proteins that promote cell death to those that prevent it rises, a cascade reaction involving caspases 3 and 9 is set in motion, leading to cell death by caspase-dependent apoptosis.
“Values are expressed as Mean ± SD of three independent replicates”. “Data were normalized using β-actin as house-keeping gene. The dashed line represents the gene expression level of untreated control. Fold change was calculated using 2^^- ΔΔCT”.
Gene expression of Bcl-2, the anti-apoptotic gene, and the pro-apoptotic genes P53, Bax, and Caspapses-3,8,9 were examined to delve deeper into the apoptotic pathway. […] After treatment, RT-PCR reaction was carried out following routine work. Then, the Ct values were collected to calculate the relative genes’ expression in all samples by normalization to the β-actin housekeeping gene.

For O=C(c1nc2ccccc2[nH]1)[C@H]1[C@H](c2ccc(Cl)cc2Cl)C2CC3CCCCC3N2[C@@]12c1ccccc1-c1nc3ccccc3nc12 (stereo partly shown) [hit III], the “selectivity index (SI)” value ([1]; A549 cells versus normal lung fibroblasts Wi-38) is listed as 6.64 and the IC50 [1] is listed as 54 nM.

In the case of O=C(c1ccc(Br)cc1)[C@H]1[C@H](c2cn(-c3ccccc3)nc2-c2ccccc2)C2CC3CCCCC3N2[C@]12C(=O)Nc1ccc(Cl)cc12 (stereo partly shown) [Compound II], the IC50 [2] is listed as 189 ± 10 nM, the IC50 [3] is listed as 1040 ± 210 nM and the IC50 [4] is listed as 35 nM. The IC50 [5] was 96.6 nM.

COC(=O)[C@H](C)NC(=O)CN1C(=O)S[C@@]2(C1=O)[C@@H](c1ccc(Cl)cc1)[C@H]1CSCN1[C@@]21C(=O)Nc2cc(Cl)ccc21 [Compound 5n, Methyl (2-((3S,6′S,7′S,7a′S)-6-chloro-7'-(4-chlorophenyl)-2,2″,4″-trioxo-7′,7a′-dihydro-1′H,3′H-dispiro [indoline-3,5′-pyrrolo [1,2-c]thiazole-6′,5″-thiazolidin]-3″-yl)acetyl)alaninate] showed an IC50 [6] of 3900 ± 300 nM, an IC50 [7] of 5300 ± 400 nM and an IC50 [8] of 47200 ± 2100 nM. The “% remaining EGFR kinase activity (relative to control)” value ([9]; 0.01 µM) was 71.48%, the inhibition at 0.01 µM ([9]; 0.01 µM) was 28.5% and the “% remaining EGFR kinase activity (relative to control)” value ([9]; 0.1 µM) was 59.63%. For the same compound, the inhibition at 0.1 µM ([9]; 0.1 µM) was 40.4%, the “% remaining EGFR kinase activity (relative to control)” value ([9]; 1 µM) was 36.13% and the inhibition at 1 µM ([9]; 1 µM) was 63.9%. The “% remaining EGFR kinase activity (relative to control)” value ([9]; 2.5 µM) was 37.42%, the inhibition at 2.5 µM ([9]; 2.5 µM) was 62.6% and the “% remaining EGFR kinase activity (relative to control)” value ([9]; 5 µM) was 30.59%. For the same compound, the inhibition at 5 µM ([9]; 5 µM) was 69.4%, the “% remaining EGFR kinase activity (relative to control)” value ([9]; 10 µM) was 8.54% and the inhibition at 10 µM ([9]; 10 µM) was 91.2%. For the same compound, the IC50 [9] was 40 ± 1 nM, the “% Of EGFR inhibition” value [9] was 91.2 ± 2.1% and the “CDK-2 kinase activity remaining (% of control)” value ([10]; 0.01 µM) was 91.05%. The inhibition at 0.01 µM ([10]; 0.01 µM) was 8.95%, the “CDK-2 kinase activity remaining (% of control)” value ([10]; 0.1 µM) was 74.4404% and the inhibition at 0.1 µM ([10]; 0.1 µM) was 25.6%. For the same compound, the “CDK-2 kinase activity remaining (% of control)” value ([10]; 1 µM) was 63.25%, the inhibition at 1 µM ([10]; 1 µM) was 36.8% and the “CDK-2 kinase activity remaining (% of control)” value ([10]; 2.5 µM) was 61.79%. The inhibition at 2.5 µM ([10]; 2.5 µM) was 38.2%, the “CDK-2 kinase activity remaining (% of control)” value ([10]; 5 µM) was 47.27% and the inhibition at 5 µM ([10]; 5 µM) was 52.7%. The “CDK-2 kinase activity remaining (% of control)” value ([10]; 10 µM) was 42.84%, the inhibition at 10 µM ([10]; 10 µM) was 88.7% and the IC50 [10] was 557 nM. For the same compound, the “% Of CDK-2 inhibition” value ([10]; concentration not given in Table 2, matches 10 µM in the 5th table) was 88.7%.

O=C(O)CN1C(=O)S[C@@]2(C1=O)[C@@H](c1ccc(Cl)cc1)[C@H]1CSCN1[C@@]21C(=O)Nc2ccc(Br)cc21 [Compound 5g, 2-((3S,6′S,7′S,7a′S)-5-bromo-7'-(4-chlorophenyl)-2,2″,4″-trioxo-7′,7a′-dihydro-1′H,3′H-dispiro [indoline-3,5′-pyrrolo [1,2-c]thiazole-6′,5″-thiazolidin]-3″-yl)acetic acid] gave an IC50 [6] of 2800 ± 400 nM, an IC50 [7] of 23500 ± 900 nM and an IC50 [8] of 39300 ± 1800 nM. The “% remaining EGFR kinase activity (relative to control)” value ([9]; 0.01 µM) was 90.58%, the inhibition at 0.01 µM ([9]; 0.01 µM) was 9.42% and the “% remaining EGFR kinase activity (relative to control)” value ([9]; 0.1 µM) was 69.72%. For the same compound, the inhibition at 0.1 µM ([9]; 0.1 µM) was 30.3%, the “% remaining EGFR kinase activity (relative to control)” value ([9]; 1 µM) was 40.27% and the inhibition at 1 µM ([9]; 1 µM) was 59.7%. The “% remaining EGFR kinase activity (relative to control)” value ([9]; 2.5 µM) was 33.39%, the inhibition at 2.5 µM ([9]; 2.5 µM) was 66.6% and the “% remaining EGFR kinase activity (relative to control)” value ([9]; 5 µM) was 31.63%. The inhibition at 5 µM ([9]; 5 µM) was 68.4%, the “% remaining EGFR kinase activity (relative to control)” value ([9]; 10 µM) was 7.867% and the inhibition at 10 µM ([9]; 10 µM) was 92.6%. For the same compound, the IC50 [9] was 26 ± 6 nM, the “% Of EGFR inhibition” value [9] was 92.6 ± 1.9% and the “CDK-2 kinase activity remaining (% of control)” value ([10]; 0.01 µM) was 90.11%. The inhibition at 0.01 µM ([10]; 0.01 µM) was 9.89%, the “CDK-2 kinase activity remaining (% of control)” value ([10]; 0.1 µM) was 78.5% and the inhibition at 0.1 µM ([10]; 0.1 µM) was 21.5%. For the same compound, the “CDK-2 kinase activity remaining (% of control)” value ([10]; 1 µM) was 64.55%, the inhibition at 1 µM ([10]; 1 µM) was 35.5% and the “CDK-2 kinase activity remaining (% of control)” value ([10]; 2.5 µM) was 60.7%. For the same compound, the inhibition at 2.5 µM ([10]; 2.5 µM) was 39.3%, the “CDK-2 kinase activity remaining (% of control)” value ([10]; 5 µM) was 33.99% and the inhibition at 5 µM ([10]; 5 µM) was 66%. The “CDK-2 kinase activity remaining (% of control)” value ([10]; 10 µM) was 27.2254%, the inhibition at 10 µM ([10]; 10 µM) was 91.9% and the IC50 [10] was 301 nM. The early apoptosis [11] was 21.87%, the late apoptosis [11] was 10.15% and the necrotic cell death ([11]; untreated control 2.12%) was 5.43%. For the same compound, the “cell population in the G0-G1-phase” value ([12]; control 31%) was 39.8%, the “cell population in the S-phase” value ([12]; control 32.1%) was 45.2% and the “cells population at G2/M phase” value ([12]; versus untreated control) was “decreased”. For the same compound, the “Bcl-2 gene expression fold change” value ([13]; anti-apoptotic gene, downregulated) was 0.39 fold, the “Bax gene expression fold change” value ([13]; normalized to β-actin, 2^-ΔΔCT) was 6.26 fold and the “P53 gene expression fold change” value ([13]; normalized to β-actin, 2^-ΔΔCT) was 4.1 fold. For the same compound, the “caspase 3 gene expression fold change” value ([13]; normalized to β-actin, 2^-ΔΔCT) was 9.2 fold, the “caspase 8 gene expression fold change” value ([13]; normalized to β-actin, 2^-ΔΔCT) was 1.7 fold and the “caspase 9 gene expression fold change” value ([13]; normalized to β-actin, 2^-ΔΔCT) was 6.13 fold.
